≈ marks a conversion by molar mass, not a printed value. Like-named read-outs stand apart in the source and are kept apart here.
Tests used:
[1] = tested on: Staph. aureus Smith; experiment: In vivo activity (oral, iv; ED50) against Staph. aureus Smith in mice
Experimental: Representative examples of compounds of Formula I were tested for the oral efficacy using S. aureus Smith in mice.

[2] = tested on: E. faecalis GC 2267; experiment: MIC, broth microdilution; settings: Enterococcus faecalis, GC2267, E. faecalis GC 2267
[3] = tested on: S. pneumoniae* GC 4465; experiment: MIC, broth microdilution; settings: Streptococcus pneumoniae, S. pneumoniae* GC 4465
[4] = tested on: E. coli GC 4560; experiment: MIC, broth microdilution; settings: Escherichia coli, GC4560, E. coli GC 4560
[5] = tested on: E. coli GC 2203; experiment: MIC, broth microdilution; settings: Escherichia coli, GC2203, E. coli GC 2203
[6] = tested on: P. aeruginosa GC 2214; experiment: MIC, broth microdilution; settings: Pseudomonas aeruginosa, GC2214, P. aeruginosa GC 2214
[7] = tested on: S. aureus GC 6466; experiment: MIC, broth microdilution; settings: Staphylococcus aureus, GC6466, S. aureus GC 6466
[8] = tested on: E. coli GC 6465; experiment: MIC, broth microdilution; settings: Escherichia coli, GC6465, E. coli GC 6465
[9] = tested on: S. epidermidis GC 4935; experiment: MIC, broth microdilution; settings: Staphylococcus epidermidis, GC4935, S. epidermidis GC 4935
[10] = tested on: S. aureus GC 2216; experiment: MIC, broth microdilution; settings: Staphylococcus aureus, GC2216, S. aureus GC 2216
[11] = tested on: S. aureus GC 1131; experiment: MIC, broth microdilution; settings: Staphylococcus aureus, GC1131, S. aureus GC 1131
[12] = tested on: S. aureus GC 6467; experiment: MIC, broth microdilution; settings: Staphylococcus aureus, GC6467, S. aureus GC 6467
[13] = tested on: E. coli GC 2232; experiment: MIC, broth microdilution; settings: Escherichia coli, GC2232, E. coli GC 2232
Experimental: Antimicrobial susceptibility testing. The in vitro activities of the antibiotics are determined by the broth microdilution method as recommended by the National Committee for Clinical Laboratory Standards (NCCLS) (1). Mueller-Hinton II broth (MHBII)(BBL Cockeysville, Md.) is the medium employed in the testing procedures. Microtiter plates containing serial dilutions of each antimicrobial agent are inoculated with each organism to yield the appropriate density (10^5 CFU/ml) in a 100 μl final volume. The plates are incubated for 18-22 hours at 35° C. in ambient air.
Representative compounds were first incubated in mouse serum for an hour prior to the in vitro testing against a panel of selected gram-positive and gram-negative bacteria strains. All compounds were also pre-incubated in water for an hour prior to testing as control. Representative compounds of Formula I were incubated in human serum prior to MIC determination.

[14] = tested on: E. coli GC 2272; experiment: MIC, broth microdilution; settings: Escherichia coli, GC2272, E. coli GC 2272
[15] = tested on: S. aureus GC 4536; experiment: MIC, broth microdilution; settings: Staphylococcus aureus, GC4536, S. aureus GC 4536
[16] = tested on: S. pneumoniae+ GC 4465; experiment: MIC, broth microdilution; settings: Streptococcus pneumoniae, S. pneumoniae+ GC 4465
[17] = tested on: E. coli GC 2234; experiment: MIC, broth microdilution; settings: Escherichia coli, GC2234, E. coli GC 2234
[18] = tested on: E. coli GC 4559; experiment: MIC, broth microdilution; settings: Escherichia coli, GC4559, E. coli GC 4559
[19] = tested on: E. coli GC 2231; experiment: MIC, broth microdilution; settings: Escherichia coli, GC2231, E. coli GC 2231
[20] = tested on: E. faecalis GC 2242; experiment: MIC, broth microdilution; settings: Enterococcus faecalis, GC2242, E. faecalis GC 2242

CCCN(CC(=O)Nc1cc(N(C)C)c2c(c1O)C(=O)C1=C(O)[C@]3(O)C(=O)C(C(N)=O)=C(O)[C@@H](N(C)C)[C@@H]3C[C@@H]1C2)C(=O)OCOC(=O)C1CCC1 [Example 7, ({[(2-{[(5aR,6aS,7S,10aS)-9-(aminocarbonyl)-4,7-bis(dimethylamino)-1,8,10a,11-tetrahydroxy-10,12-dioxo-5,5a,6,6a,7,10,10a,12-octahydrotetracen-2-yl]amino}-2-oxoethyl)(propyl)amino]carbonyl}oxy)methyl cyclobutanecarboxylate]
ED50 ([1]; Staphylococcus aureus, in Mus musculus, po, read-out: ED50 Staph Smith SOD): 16.1 mg/kg
ED50 ([1]; iv, read-out: ED50 Staph Smith SIV): 0.52 mg/kg
MIC ([2]; Mouse Serum pre-incubation): 1 µg/mL (≈ 1.37 µM)
MIC ([2]; Water pre-incubation): 2 µg/mL (≈ 2.75 µM)
MIC ([3]; Mouse Serum pre-incubation): 0.25 µg/mL (≈ 0.344 µM)
MIC ([3]; Water pre-incubation): 0.12 µg/mL (≈ 0.165 µM)
MIC ([4]; Mouse Serum pre-incubation): 0.25 µg/mL (≈ 0.344 µM)
MIC ([4]; Water pre-incubation): 0.5 µg/mL (≈ 0.687 µM)
MIC ([5]; Mouse Serum pre-incubation): 0.5 µg/mL (≈ 0.687 µM)
MIC ([5]; Water pre-incubation): 4 µg/mL (≈ 5.5 µM)
MIC ([6]; Mouse Serum pre-incubation): 16 µg/mL (≈ 22 µM)
MIC ([6]; Water pre-incubation): > 64 µg/mL
MIC ([7]; Mouse Serum pre-incubation): 0.5 µg/mL (≈ 0.687 µM)
MIC ([7]; Water pre-incubation): 0.5 µg/mL (≈ 0.687 µM)
MIC ([8]; Mouse Serum pre-incubation): 16 µg/mL (≈ 22 µM)
MIC ([8]; Water pre-incubation): > 64 µg/mL
MIC ([9]; Mouse Serum pre-incubation): 2 µg/mL (≈ 2.75 µM)
MIC ([9]; Water pre-incubation): 2 µg/mL (≈ 2.75 µM)
MIC ([10]; Mouse Serum pre-incubation): 0.5 µg/mL (≈ 0.687 µM)
MIC ([10]; Water pre-incubation): 0.5 µg/mL (≈ 0.687 µM)
MIC ([11]; Mouse Serum pre-incubation): 1 µg/mL (≈ 1.37 µM)
MIC ([11]; Water pre-incubation): 1 µg/mL (≈ 1.37 µM)
MIC ([12]; Mouse Serum pre-incubation): 4 µg/mL (≈ 5.5 µM)
MIC ([12]; Water pre-incubation): 4 µg/mL (≈ 5.5 µM)
MIC ([13]; Mouse Serum pre-incubation): 0.5 µg/mL (≈ 0.687 µM)
MIC ([13]; Water pre-incubation): 4 µg/mL (≈ 5.5 µM)
MIC ([14]; Mouse Serum pre-incubation): 0.5 µg/mL (≈ 0.687 µM)
MIC ([14]; Water pre-incubation): 4 µg/mL (≈ 5.5 µM)
MIC ([15]; Mouse Serum pre-incubation): 1 µg/mL (≈ 1.37 µM)
MIC ([15]; Water pre-incubation): 1 µg/mL (≈ 1.37 µM)
MIC ([16]; Mouse Serum pre-incubation): 4 µg/mL (≈ 5.5 µM)
MIC ([16]; Water pre-incubation): 2 µg/mL (≈ 2.75 µM)
MIC ([17]; Mouse Serum pre-incubation): 1 µg/mL (≈ 1.37 µM)
MIC ([17]; Water pre-incubation): 4 µg/mL (≈ 5.5 µM)
MIC ([18]; Mouse Serum pre-incubation): 1 µg/mL (≈ 1.37 µM)
MIC ([18]; Water pre-incubation): 8 µg/mL (≈ 11 µM)
MIC ([19]; Mouse Serum pre-incubation): 2 µg/mL (≈ 2.75 µM)
MIC ([19]; Water pre-incubation): 16 µg/mL (≈ 22 µM)
MIC ([20]; Mouse Serum pre-incubation): 1 µg/mL (≈ 1.37 µM)
MIC ([20]; Water pre-incubation): 1 µg/mL (≈ 1.37 µM)
